Test results published in patent US20220024910A1 (published 2022).

melting point: 278 to 280 °C
Structure (SMILES): Cc1c(C(=O)NN2CCS(=O)(=O)CC2)nn(-c2ccc(Cl)cc2Cl)c1-c1ccc(C#CCCC#N)cc1
